In patent publication US5731326A, “PDGF antagonists II” (ZymoGenetics, Inc., priority 1996, dated 1998):
Like-named read-outs stand apart in the source and are kept apart here.

How the values were obtained:
[1] = biological target: T1, cell-surface PDGF receptors (Rattus norvegicus, UniProt Q05030); test: Inhibition of 125I-PDGF-BB binding to rat SMCs in the presence and absence of human serum; settings: for CPM Bound, Binding Media + 10% Human Serum / CPM Bound, Binding Media: total CPM bound; for CPM Bound, Binding Media + 10% Human Serum: neg. control 1152; for CPM Bound, Binding Media: neg. control 1990
T1 construct: endogenous in cells; host or cells: rat smooth muscle cells (SMCs), monolayer culture
Description: NNC92-0270 was analyzed for the ability to inhibit ^125 I-PDGF-BB binding to monolayers of rat SMCs. To assay for inhibition of ^125 I-PDGF-BB binding to rat SMCs, the SMCs were plated at approximately 20,000 cells/well in 24-well culture dishes. The cells were used for assay 2-7 days after plating. The test compound was diluted in binding media (500 ml Ham's F-12 (Gibco BRL), 12 ml 1M Hepes pH 7.4, 5 ml 100×PSN (Gibco BRL), 1 gm rabbit serum albumin (Sigma Chemical Co., St. Louis, Mo.) to the concentrations shown in Table 2, then added to the SMCs (1 ml/well) in triplicate. To the wells was then added 50 μl of a ^125 I-PDGF-BB stock solution. Binding media alone was used as the negative control, and the addition of 200 ng/ml of PDGF-BB was used to determine nonspecific binding for ^125 I-PDGF-BB. The cells were incubated for approximately 11/2 hours at 4° C., then washed with binding media to remove unbound ligand. The cells were then incubated with extraction buffer (20 mM Tris-HCl, pH 8.0, 100 mM NaCl, 1 mM EDTA, 0.5% Nonident P-40, 0.5% sodium deoxycholate, 10 mM NaI, 1% bovine serum albumin), and the extracts were harvested and counted in a gamma counter. The data are presented as specific cpm bound for ^125 I-PDGF-BB. Nonspecific binding, determined by the addition of 200 ng/ml of unlabeled PDGF-BB, was 853 cpm, and has been subtracted from the data presented.
NNC92-0270 was subsequently analyzed for its ability to inhibit ^125 I-PDGF-BB binding to rat SMCs when the radioligand was added to the cells in the presence of 10% human serum. The rat SMCs were plated into 24-well culture dishes and assayed as described above. The test compound was diluted to the concentrations shown in Table 3 in either binding media alone, or binding media containing 10% human serum, and 1 ml aliquots added to the test cells in triplicate. Fifty microliters of a 20×stock solution of ^125 I-PDGF-BB was added to each well. The cells were incubated for 2.5 hours at 4 ° C., washed with binding media to remove unbound ligand, and harvested with extraction buffer. The extracts were then counted in a gamma counter to determine CPM bound. […] It should be noted that the binding of ^125 I-PDGF-BB was lower in the negative control sample containing the human serum, over the negative control sample with binding media alone. The results are presented as total CPM bound.

EGF = test: SRE-luciferase antagonist assay, induction by EGF; format: cell-based; settings: SWISS3T3 cells, 5 hours
Excerpt: Initial characterization of NNC92-0270 as a non-peptide PDGF antagonist was made possible through an SRE-Luciferase high through-put assay system which involves selection of substances that are able to block expression of a serum response element (SRE)-luciferase reporter gene expressed in SWISS3T3 cells. […] The degree of antagonist specificity can be determined by comparing the resultant signal for the three growth factors (PDGF, bFGF and EGF). […]
Following induction, luciferase activity was measured using a Promega luciferase assay kit (E1500; Promega Corp., Madison, Wis.) according to the assay kit protocol. […] The amount of luminescence (relative light units, RLU) was determined following a 1 second mix and a 1-3 integration of signal. Basal (uninduced) luciferase signal was subtracted from all measurements, and the luciferase signal induced by test samples was expressed as a percentage of the signal in the control. […]

T1 sequence (Q05030 32-1097): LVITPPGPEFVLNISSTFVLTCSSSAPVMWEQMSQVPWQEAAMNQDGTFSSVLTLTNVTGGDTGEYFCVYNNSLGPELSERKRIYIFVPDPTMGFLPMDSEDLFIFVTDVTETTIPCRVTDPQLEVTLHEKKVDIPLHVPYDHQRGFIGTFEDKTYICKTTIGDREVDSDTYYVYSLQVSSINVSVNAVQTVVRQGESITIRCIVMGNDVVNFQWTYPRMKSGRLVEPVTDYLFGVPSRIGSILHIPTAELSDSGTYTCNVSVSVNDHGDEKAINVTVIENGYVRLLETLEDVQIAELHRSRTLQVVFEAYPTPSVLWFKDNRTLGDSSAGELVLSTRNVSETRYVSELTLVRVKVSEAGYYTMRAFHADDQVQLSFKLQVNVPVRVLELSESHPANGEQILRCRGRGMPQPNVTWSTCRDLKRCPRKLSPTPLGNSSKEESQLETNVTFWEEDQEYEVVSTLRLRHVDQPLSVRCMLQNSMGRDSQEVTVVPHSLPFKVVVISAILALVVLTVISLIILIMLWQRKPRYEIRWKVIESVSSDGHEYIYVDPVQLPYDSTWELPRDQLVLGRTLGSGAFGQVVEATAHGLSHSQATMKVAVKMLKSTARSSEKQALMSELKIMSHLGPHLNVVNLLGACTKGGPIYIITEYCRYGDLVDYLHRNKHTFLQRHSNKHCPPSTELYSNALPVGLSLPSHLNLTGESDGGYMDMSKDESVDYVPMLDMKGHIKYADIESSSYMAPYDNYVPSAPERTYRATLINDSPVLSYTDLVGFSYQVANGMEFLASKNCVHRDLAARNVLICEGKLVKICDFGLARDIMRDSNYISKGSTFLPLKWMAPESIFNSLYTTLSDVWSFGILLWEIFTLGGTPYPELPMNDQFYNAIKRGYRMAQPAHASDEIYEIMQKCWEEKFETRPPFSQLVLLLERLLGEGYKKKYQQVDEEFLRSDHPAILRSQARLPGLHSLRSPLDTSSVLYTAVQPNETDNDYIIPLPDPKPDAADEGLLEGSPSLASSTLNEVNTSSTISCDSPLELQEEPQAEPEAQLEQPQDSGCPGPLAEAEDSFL

Q: For `O=C(NN1CCCCC1)NS(=O)(=O)c1ccc(CCNC(=O)c2[nH]c3ccccc3c2OCc2ccccc2)cc1` [NNC92-0270], which remaining activity at 12.5 µM ([1]; 12.5 μM, 10% human serum, read-out: % CB (% Control Binding), Binding Media + 10% Human Serum) is on record?
A: Its remaining activity at 12.5 µM is 30%.

Q: What about the “CPM Bound, Binding Media + 10% Human Serum” value ([1]; 12.5 μM, 10% human serum) of the same molecule?
A: Its value is 349 CPM.

Q: What about the remaining activity at 12.5 µM ([1]; 12.5 μM, binding media alone, read-out: % CB (% Control Binding), Binding Media) of the same molecule?
A: Its remaining activity at 12.5 µM is 36%.

Q: And the “CPM Bound, Binding Media” value ([1]; 12.5 μM, binding media alone)?
A: The value was 722 CPM.

Q: And the remaining activity at 25 µM ([1]; 25 μM, 10% human serum, read-out: % CB (% Control Binding), Binding Media + 10% Human Serum)?
A: The remaining activity at 25 µM was 21%.

Q: What about the “CPM Bound, Binding Media + 10% Human Serum” value ([1]; 25 μM, 10% human serum) of the same molecule?
A: Its value is 244 CPM.

Q: What about the remaining activity at 25 µM ([1]; 25 μM, binding media alone, read-out: % CB (% Control Binding), Binding Media) of the same molecule?
A: The remaining activity at 25 µM was 30%.

Q: And the “CPM Bound, Binding Media” value ([1]; 25 μM, binding media alone)?
A: The value was 605 CPM.

Q: What about the remaining activity at 50 µM ([1]; 50 μM, 10% human serum, read-out: % CB (% Control Binding), Binding Media + 10% Human Serum) of the same molecule?
A: Its remaining activity at 50 µM is 14%.

Q: And the “CPM Bound, Binding Media + 10% Human Serum” value ([1]; 50 μM, 10% human serum)?
A: Its value is 162 CPM.

Q: What about the remaining activity at 50 µM ([1]; 50 μM, binding media alone, read-out: % CB (% Control Binding), Binding Media) of the same molecule?
A: Its remaining activity at 50 µM is 23%.

Q: What about the “CPM Bound, Binding Media” value ([1]; 50 μM, binding media alone) of the same molecule?
A: The value was 467 CPM.

Q: And the “Potency for inhibiting 125I-PDGF-BB binding in 10% human serum compared to binding media alone (in words)” value ([1]; rat SMCs)?
A: The value was “approximately equal potency”.

Q: And the “Induction of SRE-luciferase, EGF IC50” value (EGF)?
A: The value was “No activity”.
